Test results: patent publication EP2520566A1, “New Pharmaceutical Compounds” (Orion Corporation, priority 2011, dated 2012)
pIC50: −log10 of the molar value.

Molecular target: TRPA1 (Homo sapiens, UniProt O75762)
Assay: Determination of TRPA1 activity in vitro (TRPA1 antagonism in vitro), procedure of Wei et al., Anesthesiology 111 (2009) 147-154
Format: cell-based
From the text: EXPERIMENT 1: Determination of TRPA1 activity in vitro
The illustrative examples of the present invention were screened for TRPA1 activity according to a procedure described in Wei et al., Anesthesiology 111 (2009) 147-154. Table 1. TRPA1 antagonism in vitro.

TRPA1, sequence (O75762 whole entry): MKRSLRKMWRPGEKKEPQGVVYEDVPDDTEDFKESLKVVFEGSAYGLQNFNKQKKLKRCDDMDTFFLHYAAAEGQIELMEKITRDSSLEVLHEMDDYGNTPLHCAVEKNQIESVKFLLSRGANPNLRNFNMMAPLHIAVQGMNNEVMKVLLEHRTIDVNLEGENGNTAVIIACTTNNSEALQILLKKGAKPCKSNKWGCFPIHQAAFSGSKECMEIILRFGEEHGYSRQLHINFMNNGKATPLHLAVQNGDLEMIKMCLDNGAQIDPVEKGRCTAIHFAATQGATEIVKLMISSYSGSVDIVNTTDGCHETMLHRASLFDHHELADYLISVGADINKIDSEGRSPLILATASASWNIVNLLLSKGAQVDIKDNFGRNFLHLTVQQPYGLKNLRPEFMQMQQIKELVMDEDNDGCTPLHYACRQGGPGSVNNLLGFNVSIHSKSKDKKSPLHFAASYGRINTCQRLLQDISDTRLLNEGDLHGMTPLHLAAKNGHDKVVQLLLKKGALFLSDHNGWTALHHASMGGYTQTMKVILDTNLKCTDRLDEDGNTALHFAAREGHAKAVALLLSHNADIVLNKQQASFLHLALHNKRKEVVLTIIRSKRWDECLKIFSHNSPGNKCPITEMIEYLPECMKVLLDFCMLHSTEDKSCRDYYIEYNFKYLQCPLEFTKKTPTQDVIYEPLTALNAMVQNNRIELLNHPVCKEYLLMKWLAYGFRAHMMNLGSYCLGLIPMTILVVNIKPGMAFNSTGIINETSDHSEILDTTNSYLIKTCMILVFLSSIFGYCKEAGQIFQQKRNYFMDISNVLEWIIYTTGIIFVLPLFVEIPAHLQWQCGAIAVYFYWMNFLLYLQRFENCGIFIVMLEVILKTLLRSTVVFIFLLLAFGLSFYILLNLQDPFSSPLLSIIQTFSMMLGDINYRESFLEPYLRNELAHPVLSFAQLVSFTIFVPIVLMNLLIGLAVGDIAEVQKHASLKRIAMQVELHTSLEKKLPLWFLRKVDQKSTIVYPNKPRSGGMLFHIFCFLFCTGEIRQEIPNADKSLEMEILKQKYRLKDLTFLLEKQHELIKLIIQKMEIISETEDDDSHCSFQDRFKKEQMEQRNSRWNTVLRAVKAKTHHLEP

pIC50	SMILES
4.77	CCc1ccc(CNC(=O)[C@@H]2CCCN2S(=O)(=O)c2ccc(F)cc2)cc1 [Example 38, (S)-N-(4-ethylbenzyl)-1-(4-fluorophenylsulfonyl)pyrrolidine-2-carboxamide]
4.85	CCCNc1cccc(CNC(=O)[C@@H]2CCCN2S(=O)(=O)c2ccc(F)cc2)c1 [Example 39, (S)-1-(4-Fluorophenylsulfonyl)-N-(3-(propylamino)benzyl)pyrrolidine-2-carboxamide]
